Data taken from PubChem BioAssay (NCI).
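Each compound was tested at five concentrations against cells in 96-well plates for 48 hours. GI50 is the concentration that inhibits growth by half. TGI denotes the concentration required for complete inhibition of growth.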

Tests used:
Assay in all cases: NCI anticancer screen, dose series, 48 h
[1] = system: NCI-H226 lung
[2] = system: T-47D breast
[3] = system: EKVX NSCLC
[4] = system: OVCAR-4 ovarian
[5] = system: HCT-15 colon
[6] = system: SF-295 CNS
[7] = system: SF-539 CNS
[8] = system: NCI-H460 lung
[9] = system: NCI-H522 lung
[10] = system: MDA-MB-468 breast
[11] = system: HOP-92 NSCLC
[12] = system: OVCAR-5 ovarian
[13] = system: NCI/ADR-RES ovarian
[14] = system: SK-OV-3 ovarian
[15] = system: K-562 leukemia
[16] = system: UACC-257 melanoma
[17] = system: SNB-19 CNS
[18] = system: RPMI-8226 leukemia
[19] = system: COLO 205 colon
[20] = system: A498 renal
[21] = system: OVCAR-8 ovarian
[22] = system: SF-268 CNS
[23] = system: SK-MEL-5 melanoma
[24] = system: RXF 393 renal
[25] = system: MALME-3M melanoma
[26] = system: TK-10 renal
[27] = system: PC-3 prostate
[28] = system: HCT-116 colon
[29] = system: HOP-62 NSCLC
[30] = system: U251 CNS
[31] = system: HS 578T breast
[32] = system: MOLT-4 leukemia
[33] = system: UACC-62 melanoma
[34] = system: SK-MEL-28 melanoma
[35] = system: CCRF-CEM leukemia
[36] = system: SNB-75 CNS
[37] = system: HT29 colon
[38] = system: NCI-H23 lung
[39] = system: CAKI-1 renal
[40] = system: OVCAR-3 ovarian
[41] = system: MDA-MB-435
[42] = system: IGROV1 ovarian
[43] = system: LOX IMVI melanoma
[44] = system: SK-MEL-2 melanoma
[45] = system: ACHN renal
[46] = system: SN12C renal
[47] = system: 786-0 renal
[48] = system: A549 NSCLC
[49] = system: HL-60(TB) leukemia
[50] = system: M14 melanoma
[51] = system: KM12 colon
[52] = system: DU-145 prostate
[53] = system: MCF7 breast
[54] = system: BT-549 breast
[55] = system: HCC-2998 colon
[56] = system: SW-620 colon

## COC(=O)C(Cc1ccc(O)c(O)c1)NC(=O)C(CSC/C=C(\C)CCCC(C)CCCC(C)CCCC(C)C)NC(C)=O (configuration not stated)
[1]
  GI50: 16.2 µM
  TGI: > 100 µM
[2]
  GI50: 7.78 µM
  TGI: 45.3 µM
[3]
  GI50: 30.3 µM
  TGI: > 100 µM
[4]
  GI50: 25.6 µM
  TGI: > 100 µM
[5]
  GI50: 4.45 µM
  TGI: > 100 µM
[6]
  GI50: 18.3 µM
  TGI: 43.8 µM
[7]
  GI50: 9.48 µM
  TGI: 26.1 µM
[8]
  GI50: 4.27 µM
  TGI: > 100 µM
[9]
  GI50: 1.82 µM
  TGI: 3.6 µM
[10]
  GI50: 16.9 µM
  TGI: > 100 µM
[11]
  GI50: 11.9 µM
  TGI: 30.1 µM
[12]
  GI50: 29.5 µM
  TGI: > 100 µM
[13]
  GI50: 33.3 µM
  TGI: > 100 µM
[14]
  GI50: 17.5 µM
  TGI: 43.2 µM
[15]
  GI50: 8.06 µM
  TGI: > 100 µM
[16]
  GI50: 69.2 µM
  TGI: > 100 µM
[17]
  GI50: 3.81 µM
  TGI: 48.4 µM
[18]
  GI50: 4.06 µM
  TGI: > 100 µM
[19]
  GI50: 15.5 µM
  TGI: > 100 µM
[20]
  GI50: 30.3 µM
  TGI: > 100 µM
[21]
  GI50: 7.95 µM
  TGI: 32.7 µM
[22]
  GI50: 26.7 µM
  TGI: > 100 µM
[23]
  GI50: 28 µM
  TGI: > 100 µM
[24]
  GI50: 16.1 µM
  TGI: 44.5 µM
[25]
  GI50: 49.1 µM
  TGI: > 100 µM
[26]
  GI50: 22.3 µM
  TGI: 93.8 µM
[27]
  GI50: 3 µM
  TGI: 14.2 µM
[28]
  GI50: 1.33 µM
  TGI: 2.81 µM
[29]
  GI50: 13.6 µM
  TGI: 44.4 µM
[30]
  GI50: 2.84 µM
  TGI: 11.2 µM
[31]
  GI50: 27.7 µM
  TGI: > 100 µM
[32]
  GI50: 3.34 µM
  TGI: > 100 µM
[33]
  GI50: 17.1 µM
  TGI: 74.8 µM
[34]
  GI50: 49.5 µM
  TGI: > 100 µM
[35]
  GI50: 3.84 µM
  TGI: > 100 µM
[36]
  GI50: 39.3 µM
  TGI: > 100 µM
[37]
  GI50: 9.19 µM
  TGI: > 100 µM
[38]
  GI50: 20 µM
  TGI: 64.2 µM
[39]
  GI50: 31 µM
  TGI: > 100 µM
[40]
  GI50: 5.79 µM
  TGI: > 100 µM
[41]
  GI50: 41.5 µM
  TGI: > 100 µM
[42]
  GI50: 10.7 µM
  TGI: > 100 µM
[43]
  GI50: 10.5 µM
  TGI: > 100 µM
[44]
  GI50: 25.1 µM
  TGI: 90 µM
[45]
  GI50: 16.5 µM
  TGI: 42.7 µM
[46]
  GI50: 30.9 µM
  TGI: > 100 µM
[47]
  GI50: 1.29 µM
  TGI: 2.76 µM
[48]
  GI50: 11.2 µM
  TGI: > 100 µM
[49]
  GI50: 6.67 µM
  TGI: 41.5 µM
[50]
  GI50: 2.78 µM
  TGI: 12.5 µM
[51]
  GI50: 9.05 µM
  TGI: > 100 µM
[52]
  GI50: > 100 µM
  TGI: > 100 µM
[53]
  GI50: 13.5 µM
  TGI: > 100 µM
[54]
  GI50: 1.36 µM
  TGI: 3 µM
[55]
  GI50: 18 µM
  TGI: > 100 µM
[56]
  GI50: 11.4 µM
  TGI: > 100 µM
